Assay results taken from patent publication US9650339B2, “Inhibitors of histone demethylases” (Gilead Sciences, Inc., priority 2013, dated 2017).

How the values were obtained:
Type in all cases: biochemical
KDM5C (JARID1C) = molecular target: T1, KDM5C (JARID1C) (Homo sapiens, UniProt P41229); test: Histone lysine demethylase AlphaLISA assay, KDM5C; settings: read-out: KDM5C HDME Inhibition IC50
T1 construct: 2-1560; purchased BPS; host or cells: Bac (baculovirus system)
Procedure: (§1) Assays are performed analogously to the protocol described by PerkinElmer (Roy et al. PerkinElmer Technical Note: AlphaLISA #12, April 2011)
(§2) Enzymes are dissolved in enzyme buffer and incubated for 10 min before being added to 3% DMSO solutions of compounds in enzyme buffer. Incubated for another 10 minutes, before substrate solution is added and the reaction mixture is incubated at room temperature. 10 μL acceptor beads, suspended in Epigenetic Buffer (Perkin Elmer AL008) from stock, are added and the suspension is incubated in the dark at room temperature, before a suspension of streptavidin donor beads (Perkin Elmer 6760002) in Epigenetic Buffer is added. After incubation at room temperature in the dark the plates are read. […]
H3K4M3B: H-ART(Kme3)QTARKSTGGKAPRKQLA-NH-Biotin (Caslo, Denmark) […]
(§3) Substrate Solution: Substrate, 25 μM L-Asc, and 10 μM α-KG in Buffer A.

KDM3A (JMJD1A) = molecular target: T2, KDM3A (JMJD1A) (Homo sapiens, UniProt Q9Y4C1); test: Histone lysine demethylase AlphaLISA assay, KDM3A; settings: read-out: KDM3 A HDME Inhibition IC50
T2 construct: 2-end; purchased BPS Bioscience, US; host or cells: Bac (baculovirus system)
T2 sequence (Q9Y4C1 2-1321 limits assumed): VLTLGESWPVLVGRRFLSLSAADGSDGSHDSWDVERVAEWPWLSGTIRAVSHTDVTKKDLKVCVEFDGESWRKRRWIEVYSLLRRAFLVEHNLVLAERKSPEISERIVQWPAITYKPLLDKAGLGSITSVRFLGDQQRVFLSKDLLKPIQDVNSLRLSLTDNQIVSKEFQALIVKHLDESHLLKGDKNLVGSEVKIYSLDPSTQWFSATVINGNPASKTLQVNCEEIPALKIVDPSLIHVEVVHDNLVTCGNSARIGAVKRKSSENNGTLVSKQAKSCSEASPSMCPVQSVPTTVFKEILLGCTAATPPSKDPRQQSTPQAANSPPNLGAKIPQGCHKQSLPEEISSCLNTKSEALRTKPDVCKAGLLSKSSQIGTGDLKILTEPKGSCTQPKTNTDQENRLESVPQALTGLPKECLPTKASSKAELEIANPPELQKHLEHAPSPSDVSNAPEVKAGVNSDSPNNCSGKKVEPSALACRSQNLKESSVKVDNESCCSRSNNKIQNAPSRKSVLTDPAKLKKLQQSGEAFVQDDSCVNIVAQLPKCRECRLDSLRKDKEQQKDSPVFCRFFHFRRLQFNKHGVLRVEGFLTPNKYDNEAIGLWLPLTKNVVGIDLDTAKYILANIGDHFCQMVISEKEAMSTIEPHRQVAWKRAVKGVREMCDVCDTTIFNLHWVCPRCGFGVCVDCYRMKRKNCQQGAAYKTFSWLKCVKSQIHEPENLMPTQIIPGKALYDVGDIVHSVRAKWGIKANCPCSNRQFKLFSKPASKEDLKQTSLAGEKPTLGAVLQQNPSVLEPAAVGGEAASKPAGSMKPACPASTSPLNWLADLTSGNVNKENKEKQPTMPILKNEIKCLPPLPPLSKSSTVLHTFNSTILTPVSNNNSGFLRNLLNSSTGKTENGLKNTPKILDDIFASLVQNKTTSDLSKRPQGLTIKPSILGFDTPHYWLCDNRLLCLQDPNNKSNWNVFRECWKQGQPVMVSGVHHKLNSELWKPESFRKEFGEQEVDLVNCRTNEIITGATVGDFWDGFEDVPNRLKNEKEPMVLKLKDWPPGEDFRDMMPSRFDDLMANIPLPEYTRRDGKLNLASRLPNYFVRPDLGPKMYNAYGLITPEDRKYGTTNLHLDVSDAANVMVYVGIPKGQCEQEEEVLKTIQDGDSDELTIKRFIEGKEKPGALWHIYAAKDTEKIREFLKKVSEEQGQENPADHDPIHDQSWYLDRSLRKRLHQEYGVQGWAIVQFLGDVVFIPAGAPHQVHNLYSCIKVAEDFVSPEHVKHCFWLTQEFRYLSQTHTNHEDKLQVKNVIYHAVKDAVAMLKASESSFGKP
Procedure: as §1, §2
BK9M2: Biotin-ARTKQTAR(KMe2)STGGKAPRKQ-NH2 (AnaSpec 64359) […]
as §3

KDM4A (JMJD2A) = molecular target: T3, KDM4A (JMJD2A) (Homo sapiens, UniProt O75164); test: Histone lysine demethylase AlphaLISA assay, KDM4A; settings: read-out: KDM4A HDME Inhibition IC50
T3 construct: 1-350; purchased BPS Bioscience, US; host or cells: E. coli
T3 sequence (O75164 1-350): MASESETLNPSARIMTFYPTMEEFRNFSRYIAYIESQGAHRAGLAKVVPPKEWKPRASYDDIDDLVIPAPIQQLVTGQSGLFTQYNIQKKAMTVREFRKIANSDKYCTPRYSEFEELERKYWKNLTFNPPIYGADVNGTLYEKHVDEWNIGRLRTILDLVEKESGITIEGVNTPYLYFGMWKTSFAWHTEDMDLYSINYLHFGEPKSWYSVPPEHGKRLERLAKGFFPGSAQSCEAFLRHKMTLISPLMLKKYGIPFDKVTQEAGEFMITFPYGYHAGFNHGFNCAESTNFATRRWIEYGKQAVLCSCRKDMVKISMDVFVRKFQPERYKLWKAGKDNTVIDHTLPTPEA
Procedure: as §1
Enzymes are dissolved in enzyme buffer and incubated for 10 min before being added to 3% DMSO solutions of compounds in enzyme buffer. Incubated for another 10 minutes, before substrate solution is added and the reaction mixture is incubated at room temperature. 10 μL acceptor beads, suspended in Epigenetic Buffer (Perkin Elmer AL008) from stock, are added and the suspension is incubated in the dark at room temperature, before a suspension of streptavidin donor beads (Perkin Elmer 6760002) in Epigenetic Buffer is added. After incubation at room temperature in the dark the plates are read.
BK9M3: Biotin-ARTKQTAR(KMe3)STGGKAPRKQ-NH2 (Caslo, Denmark) […]
as §3

KDM4C (JMJD2C) = molecular target: T4, KDM4C (JMJD2C) (Homo sapiens, UniProt Q9H3R0); test: Histone lysine demethylase AlphaLISA assay, KDM4C; settings: read-out: KDM4C HDME Inhibition IC50
T4 sequence (Q9H3R0 1-349): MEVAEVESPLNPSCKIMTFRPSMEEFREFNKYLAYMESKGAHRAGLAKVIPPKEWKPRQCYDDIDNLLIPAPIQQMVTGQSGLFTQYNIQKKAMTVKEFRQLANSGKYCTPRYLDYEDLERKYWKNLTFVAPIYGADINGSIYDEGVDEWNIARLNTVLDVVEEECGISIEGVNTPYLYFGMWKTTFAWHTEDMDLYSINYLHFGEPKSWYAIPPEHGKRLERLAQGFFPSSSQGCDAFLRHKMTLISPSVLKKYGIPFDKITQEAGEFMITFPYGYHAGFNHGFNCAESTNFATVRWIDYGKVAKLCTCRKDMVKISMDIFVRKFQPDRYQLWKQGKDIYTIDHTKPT
In short: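 Enzyme 10 min pre-incubation; + compound (3% DMSO soln) 10 min; + biotin-H3 methyl-Lys peptide, 25 μM L-Asc, 10 μM α-KG, RT. Read: AlphaLISA acceptor beads, then streptavidin donor beads, RT, dark.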

T1 sequence (P41229 2-1560): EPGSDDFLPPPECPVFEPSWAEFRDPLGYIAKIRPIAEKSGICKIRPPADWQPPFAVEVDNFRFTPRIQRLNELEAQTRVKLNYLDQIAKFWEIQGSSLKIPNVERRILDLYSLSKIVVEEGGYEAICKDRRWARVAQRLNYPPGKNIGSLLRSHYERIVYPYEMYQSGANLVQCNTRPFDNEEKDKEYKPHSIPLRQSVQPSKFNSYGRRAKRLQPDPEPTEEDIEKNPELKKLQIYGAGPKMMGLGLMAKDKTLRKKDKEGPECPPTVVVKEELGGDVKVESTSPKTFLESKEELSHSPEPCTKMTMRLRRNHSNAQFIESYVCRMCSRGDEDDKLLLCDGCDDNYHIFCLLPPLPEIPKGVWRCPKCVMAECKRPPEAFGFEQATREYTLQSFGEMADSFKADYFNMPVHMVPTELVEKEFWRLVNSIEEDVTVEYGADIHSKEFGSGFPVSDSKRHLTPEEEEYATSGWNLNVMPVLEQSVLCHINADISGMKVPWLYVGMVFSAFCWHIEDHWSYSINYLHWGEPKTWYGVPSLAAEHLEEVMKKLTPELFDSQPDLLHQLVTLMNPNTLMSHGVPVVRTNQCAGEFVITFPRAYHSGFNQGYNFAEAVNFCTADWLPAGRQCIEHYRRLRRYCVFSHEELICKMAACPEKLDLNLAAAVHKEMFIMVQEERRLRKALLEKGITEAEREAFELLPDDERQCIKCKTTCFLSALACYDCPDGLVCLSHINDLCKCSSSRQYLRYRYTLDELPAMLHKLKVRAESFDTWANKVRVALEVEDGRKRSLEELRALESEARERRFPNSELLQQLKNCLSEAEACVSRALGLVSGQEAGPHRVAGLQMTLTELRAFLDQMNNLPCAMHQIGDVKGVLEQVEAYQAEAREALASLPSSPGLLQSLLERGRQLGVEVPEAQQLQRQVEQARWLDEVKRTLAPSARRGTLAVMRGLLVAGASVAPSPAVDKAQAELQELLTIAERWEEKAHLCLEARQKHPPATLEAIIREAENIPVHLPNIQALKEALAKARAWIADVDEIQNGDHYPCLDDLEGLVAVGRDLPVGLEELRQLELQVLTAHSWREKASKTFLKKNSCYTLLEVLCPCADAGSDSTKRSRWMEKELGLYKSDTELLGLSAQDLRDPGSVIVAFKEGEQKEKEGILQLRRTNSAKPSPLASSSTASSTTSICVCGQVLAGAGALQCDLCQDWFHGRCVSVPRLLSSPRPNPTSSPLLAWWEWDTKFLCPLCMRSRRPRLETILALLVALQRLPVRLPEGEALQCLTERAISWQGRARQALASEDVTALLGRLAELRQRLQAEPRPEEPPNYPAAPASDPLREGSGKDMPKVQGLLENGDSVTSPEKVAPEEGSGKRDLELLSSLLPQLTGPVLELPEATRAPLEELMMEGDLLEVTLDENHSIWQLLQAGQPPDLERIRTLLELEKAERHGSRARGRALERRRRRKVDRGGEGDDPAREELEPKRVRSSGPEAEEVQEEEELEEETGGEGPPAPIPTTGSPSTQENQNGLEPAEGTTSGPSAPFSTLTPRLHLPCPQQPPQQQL

| IC50 (KDM5C (JARID1C)) [nM] | IC50 (KDM3A (JMJD1A)) [nM] | IC50 (KDM4A (JMJD2A)) [nM] | IC50 (KDM4C (JMJD2C)) [nM] | Structure (SMILES) |
| --- | --- | --- | --- | --- |
| < 250 | > 2500 | > 2500 | > 2500 | CN1CCN(C(=O)CNCc2cc(C=O)ccn2)CC1 [Compound 103, 2-({[2-(4-methylpiperazin-1-yl)-2-oxoethyl]-amino}methyl)-pyridine-4-carbaldehyde] |
| 250 to 2500 | > 2500 | 250 to 2500 | 250 to 2500 | O=C(CNCc1cc(/C=N/C2CC2)ccn1)N1CCC(Cc2ccccc2)CC1 [Compound 55, 1-(4-benzylpiperidin-1-yl)-2-[({4-[N-cyclopropyl-carboximidoyl]-pyridin-2-yl}methyl)amino]-ethan-1-one] |
| < 250 | > 2500 | > 2500 | > 2500 | CN(C)CCCCNCc1cc(C=O)ccn1 [Compound 108, 2-({[4-(dimethylamino)-butyl]amino}methyl)-pyridine-4-carbaldehyde] |
| < 250 | > 2500 | 250 to 2500 | 250 to 2500 | CN1CCN(C(=O)CNCc2cc(/C=N/C3CC3)ccn2)CC1 [Compound 54, 2-[({4-[N-cyclopropyl-carboximidoyl]-pyridin-2-yl}methyl)amino]-1-(4-methylpiperazin-1-yl)ethan-1-one] |
| < 250 | > 2500 | < 250 | < 250 | CCN(CCN(C)C)C(=O)CNCc1cc(C=O)ccn1 [Compound 101] |
| < 250 | > 2500 | – | > 2500 | CN1CCC(CNCc2cc(C=O)ccn2)CC1 [Compound 100, 2-({[(1-methyl-piperidin-4-yl)methyl]amino}-methyl)pyridine-4-carbaldehyde] |
| < 250 | > 2500 | – | 250 to 2500 | CCN1CCCC1CNC(=O)CNCc1cc(C=O)ccn1 (stereo not shown) [Compound 104, N-[(1-ethylpyrrolidin-2-yl)methyl]-2-{[(4-formylpyridin-2-yl)methyl]amino}-acetamide] |

Second part, the molecule before the results:

| Structure (SMILES) | IC50 (KDM5C (JARID1C)) [nM] | IC50 (KDM3A (JMJD1A)) [nM] | IC50 (KDM4A (JMJD2A)) [nM] | IC50 (KDM4C (JMJD2C)) [nM] |
| --- | --- | --- | --- | --- |
| CCN(CCC#N)C(=O)CNCc1cc(/C=N/C2CC2)ccn1 [Compound 50, N-(2-cyanoethyl)-2-[({4-[N-cyclopropyl-carboximidoyl]-pyridin-2-yl}methyl)amino]-N-ethylacetamide] | < 250 | > 2500 | < 250 | 250 to 2500 |
| CNCc1ccnc(CNCCCN(C)Cc2ccccc2)c1 [Compound 17, benzyl(methyl){3-[({4-[(methylamino)methyl]-pyridin-2-yl)methyl)-amino]propyl}-amine] | < 250 | > 2500 | > 2500 | 250 to 2500 |
| CCN(CC)CCCCNCc1cc(C2NCCN2C)ccn1 (stereo not shown) [Compound 65, [4-(diethylamino)-butyl]({[4-(1-methylimidazolidin-2-yl)pyridin-2-yl]methyl})amine] | < 250 | > 2500 | > 2500 | 250 to 2500 |
| CCN(CC)CCCCNCc1cc(/C=N/CC(F)(F)C(F)(F)F)ccn1 [Compound 62, {[2-({[4-(diethylamino)-butyl]amino}methyl)pyridin-4-yl]methylidene} (2,2,3,3,3-pentafluoropropyl)-amine] | < 250 | > 2500 | > 2500 | > 2500 |
| CN(C)C(=O)CNCc1cc(/C=N/CCC2CCCCC2)ccn1 [Compound 36, 2-[({4-[[(2-cyclohexylethyl)imino]-methyl]pyridin-2-yl}methyl)amino]-N,N-dimethylacetamide] | < 250 | > 2500 | 250 to 2500 | 250 to 2500 |
| CN(C)CCNCc1cc(CNC(C#N)C2CC2)ccn1 (stereo not shown) [Compound 21, 2-cyclopropyl-2-({[2-({[2-(dimethylamino)ethyl]-amino}methyl)pyridin-4-yl]methyl}amino)-acetonitrile] | > 2500 | > 2500 | > 2500 | > 2500 |
| CCN(CCN(C)C)C(=O)CNCc1cc(CN)ccn1 [Compound 4, 2-({[4-(aminomethyl)pyridin-2-yl]methyl}amino)-N-[2-(dimethylamino)ethyl]-N-ethylacetamide] | < 250 | > 2500 | 250 to 2500 | 250 to 2500 |
| N#CCNCc1ccnc(CNCCCCN(Cc2ccccc2)C2CC2)c1 [Compound 23, 2-[({2-[({4-[benzyl(cyclopropyl)-amino]butyl}amino)-methyl]pyridin-4-yl}methyl)amino]-acetonitrile] | < 250 | > 2500 | > 2500 | > 2500 |
| CN(C)CCCCCNCc1cc(CN)ccn1 [Compound 8, [2-({[5-(dimethylamino)pentyl]-amino}methyl)pyridin-4-yl]methanamine] | < 250 | > 2500 | > 2500 | > 2500 |
| CN(C)CCNCc1ccnc(CNCC(=O)N(C)C)c1 [Compound 15, 2-({[4-({[2-(dimethylamino)ethyl]-amino}methyl)pyridin-2-yl]methyl}amino)-N,N-dimethylacetamide] | 250 to 2500 | > 2500 | > 2500 | 250 to 2500 |
| CN(C)C/C=C/CNCc1cc(/C=N/C2CC2)ccn1 [Compound 43, N-{[2-({[(2E)-4-(dimethylamino)but-2-en-1-yl]amino}-methyl)pyridin-4-yl]methylidene}-cyclopropanamine] | < 250 | > 2500 | 250 to 2500 | < 250 |
